Experimental data: patent publication US10722501B2 (BAYER AKTIENGESELLSCHAFT, priority 2016, dated 2020)

biological target: T1, recombinant full-length human prolyl endopeptidase (PREP) (Homo sapiens, UniProt P48147); experiment: Biochemical human prolyl endopeptidase (PREP) assay with fluorescently labelled substrate; details: substrate Z-Gly-Pro-AMC 50 μM, 32° C., 60 min; some as mean values from multiple independent determinations
T1 construct: To recombinant full-length human prolyl endopeptidase (PREP, R&D-Systems, 4308-SE); purchased R&D-Systems 4308-SE
T1 sequence (P48147 1-710): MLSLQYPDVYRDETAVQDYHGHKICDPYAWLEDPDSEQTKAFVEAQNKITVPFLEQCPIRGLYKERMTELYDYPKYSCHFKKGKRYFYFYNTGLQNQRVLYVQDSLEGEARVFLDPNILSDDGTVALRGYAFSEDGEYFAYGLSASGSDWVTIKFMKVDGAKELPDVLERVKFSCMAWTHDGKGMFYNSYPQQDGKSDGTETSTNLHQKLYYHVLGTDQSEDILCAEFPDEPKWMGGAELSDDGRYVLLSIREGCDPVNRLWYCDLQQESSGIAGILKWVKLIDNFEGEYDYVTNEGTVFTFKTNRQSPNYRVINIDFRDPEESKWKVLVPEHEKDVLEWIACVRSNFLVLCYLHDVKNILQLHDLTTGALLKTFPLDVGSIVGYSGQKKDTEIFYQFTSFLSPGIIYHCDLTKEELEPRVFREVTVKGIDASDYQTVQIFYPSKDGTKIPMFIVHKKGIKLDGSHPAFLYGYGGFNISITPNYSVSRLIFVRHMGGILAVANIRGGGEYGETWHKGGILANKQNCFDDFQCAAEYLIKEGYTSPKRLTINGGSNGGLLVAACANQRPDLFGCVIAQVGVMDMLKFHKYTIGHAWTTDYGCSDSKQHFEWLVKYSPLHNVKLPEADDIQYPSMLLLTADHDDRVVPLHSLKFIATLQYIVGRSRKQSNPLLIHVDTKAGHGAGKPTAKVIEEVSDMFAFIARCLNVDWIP
Description: B-1 Biochemical Human Prolyl Endopeptidase (PREP) Assay for Identification of Inhibitors of PREP Activity Using a Fluorescently Labelled Substrate Principle of the Assay:
The enzymatic conversion of the fluorescent peptide substrate was observed on the basis of the measurement of the fluorescence intensity. The enzyme activity was determined by the ascertaining of the initial slope in the increase in fluorescence. Compounds that inhibit PREP were identified on the basis of the decrease in the initial slope compared to a reaction mixture without test compound.
Determination of Activity:
IC50 values were determined by the plotting of the percentage PREP activity against the concentration of the test substance by interpolation.
To recombinant full-length human prolyl endopeptidase (PREP, R&D-Systems, 4308-SE; final concentration, for example, 0.4 nM, volume: 25 μl) in reaction buffer (50 mM Tris-HCl, pH 7.5; 150 mM NaCl; 0.13% BSA, 5 mM EDTA, 3 mM GSH, 0.005% Brij-35) was added a test compound (in DMSO, in an appropriate final concentration range from 1 nM to 30 μM, volume: 1 μl) in a well of a 384-well microtitre plate. The reaction was initiated by adding the substrate Z-Gly-Pro-AMC (final concentration 50 μM; Z=carboxybenzyl; AMC=7-amino-4-methylcoumarin, volume: 25 μl). The progress of the PREP reaction was observed by measuring the fluorescence intensity in a Tecan SAFIRE II plate spectrophotometer at 32° C. over a period of 60 min (excitation wavelength: 360 nm, emission wavelength: 465 nm).
Table B-1 below collates the IC50 values thus obtained from the human prolyl endopeptidase assay for individual working examples of the invention (some as mean values from multiple independent individual determinations).

Row | Structure (SMILES) | IC50 [nM]
1 | Cn1nc(Cn2nc3n(c2=O)[C@H](C(=O)N2C[C@@H](F)[C@@H](F)C2)CCC3)c2cccnc21 [Example 414, (5S)-5-{[(3R,4S)-3,4-Difluoropyrrolidin-1-yl]carbonyl}-2-[(1-methyl-1H-pyrazolo[3,4-b]pyridin-3-yl)methyl]-5,6,7,8-tetrahydro[1,2,4]triazolo[4,3-a]pyridin-3(2H)-one] | 0.79
2 | O=C([C@@H]1CCCc2nn(Cc3ncc(Cl)cc3F)c(=O)n21)N1C[C@@H](F)[C@@H](F)C1 [Example 408, (5S)-2-[(5-Chloro-3-fluoropyridin-2-yl)methyl]-5-{[(3R,4S)-3,4-difluoropyrrolidin-1-yl]carbonyl}-5,6,7,8-tetrahydro[1,2,4]triazolo[4,3-a]pyridin-3(2H)-one] | 0.46
3 | O=C(C1C(C(F)(F)F)CCc2nn(Cc3ccc(Cl)cn3)c(=O)n21)N1C[C@@H](F)[C@@H](F)C1 (single isomer, unassigned) [Example 301] | 19.5
4 | O=C(C1CCCc2nn(Cc3cc(C(F)(F)F)ccc3C(F)(F)F)c(=O)n21)N1CCCC1 (racemic) [Example 65, (5RS)-2-[2,5-Bis(trifluoromethyl)benzyl]-5-(pyrrolidin-1-ylcarbonyl)-5,6,7,8-tetrahydro[1,2,4]triazolo[4,3-a]pyridin-3(2H)-one] | 1.85
5 | COc1ccc(Cn2nc3n(c2=O)[C@H](C(=O)N2CC(F)C2)CCC3)nc1 [Example 382, (5S)-5-[(3-Fluoroazetidin-1-yl)carbonyl]-2-[(5-methoxypyridin-2-yl)methyl]-5,6,7,8-tetrahydro[1,2,4]triazolo[4,3-a]pyridin-3(2H)-one] | 5.9
6 | O=C(C1CC(C(F)(F)F)Cc2nn(Cc3ncc(C(F)(F)F)cc3Cl)c(=O)n21)N1CCC(F)(F)C1 (racemic) [Example 564, (5RS,7RS)-2-{[3-Chloro-5-(trifluoromethyl)pyridin-2-yl]methyl}-5-[(3,3-difluoropyrolidin-1-yl)carbonyl]-7-(trifluoromethyl)-5,6,7,8-tetrahydro[1,2,4]triazolo[4,3-a]pyridin-3(2H)-one] | 4.4
7 | O=C([C@@H]1CCCc2nn(Cc3cc(C(F)(F)F)ccn3)c(=O)n21)N1CCCC1 [Example 93, (5S)-5-(Pyrrolidin-1-ylcarbonyl)-2-{[4-(trifluoromethyl)pyridin-2-yl]methyl}-5,6,7,8-tetrahydro[1,2,4]triazolo[4,3-a]pyridin-3(2H)-one] | 6
8 | O=C([C@@H]1CCCc2nn(Cc3ccc(C(F)(F)F)cn3)c(=O)n21)N1CCCC1 [Example 531, (5S)-5-(Pyrrolidin-1-ylcarbonyl)-2-{[5-(trifluoromethyl)pyridin-2-yl]methyl}-5,6,7,8-tetrahydro[1,2,4]triazolo[4,3-a]pyridin-3(2H)-one] | 3
9 | CC1Cc2nn(Cc3ccc(F)c(Cl)c3)c(=O)n2C(C(=O)N2C[C@@H](F)[C@@H](F)C2)C1 (mixture of isomers) [Example 339, (5RS,7RS)-2-(3-Chloro-4-fluorobenzyl)-5-{[(3R,4S)-3,4-difluoropyrrolidin-1-yl]carbonyl}-7-methyl-5,6,7,8-tetrahydro[1,2,4]triazolo[4,3-a]pyridin-3(2H)-one] | 0.49
10 | CC1Cc2nn(Cc3ccc(C(F)(F)F)nc3)c(=O)n2C(C(=O)N2C[C@@H](F)[C@@H](F)C2)C1 (single isomer, unassigned) [Example 338] | 1.5
11 | O=C(C1CCc2nn(Cc3ccc(C(F)(F)F)nc3)c(=O)n21)N1CCC(F)(F)C1 (racemic) [Example 167, (5RS)-5-[(3,3-Difluoropyrrolidin-1-yl)carbonyl]-2-{[6-(trifluoromethyl)pyridin-3-yl]methyl}-2,5,6,7-tetrahydro-3H-pyrrolo[2,1-c][1,2,4]triazol-3-one] | 56.5
12 | O=C(C1CC(C(F)(F)F)Cc2nn(Cc3ccnc(C(F)(F)F)c3F)c(=O)n21)N1C[C@@H](F)[C@@H](F)C1 (single isomer, unassigned) [Example 260] | 2.6
13 | Cc1nc(C)c(Cn2nc3n(c2=O)C(C(=O)N2CCCC2)CCC3)nc1C (single isomer, unassigned) [Example 104, (5RS)-5-(Pyrrolidin-1-ylcarbonyl)-2-[(3,5,6-trimethylpyrazin-2-yl)methyl]-5,6,7,8-tetrahydro[1,2,4]triazolo[4,3-a]pyridin-3(2H)-one] | 0.46
14 | O=C([C@@H]1CCC(F)(F)c2nn(Cc3ncc(Cl)cc3F)c(=O)n21)N1CC[C@H](F)C1 [Example 556, (5S)-2-[(5-chloro-3-fluoropyridin-2-yl)methyl]-8,8-difluoro-5-{[(3S)-3-fluoropyrrolidin-1-yl]carbonyl}-5,6,7,8-tetrahydro[1,2,4]triazolo[4,3-a]pyridin-3(2H)-one] | 0.63

Continued, values first:

Row | IC50 [nM] | Structure (SMILES)
15 | 2 | O=C([C@@H]1CCCc2nn(Cc3ccc(C(F)(F)F)nc3)c(=O)n21)N1CCSC1 [Example 503, (5S)-5-(1,3-Thiazolidin-3-ylcarbonyl)-2-{[6-(trifluoromethyl)pyridin-3-yl]methyl}-5,6,7,8-tetrahydro[1,2,4]triazolo[4,3-a]pyridin-3(2H)-one]
16 | 28.4 | Cc1ccc(Cn2nc3n(c2=O)C(C(=O)N2C[C@H]4C[C@H]4C2)CCC3)cc1 (mixture of isomers) [Example 126, (5RS)-5-[(cis)-3-Azabicyclo[3.1.0]hex-3-ylcarbonyl]-2-(4-methylbenzyl)-5,6,7,8-tetrahydro[1,2,4]triazolo[4,3-a]pyridin-3(2H)-one]
17 | 2.5 | Cc1ccc(Cn2nc3n(c2=O)[C@H](C(=O)N2CC(C(F)F)C2)CCC3)cc1 [Example 149, (5S)-5-{[3-(Difluoromethyl)azetidin-1-yl]carbonyl}-2-(4-methylbenzyl)-5,6,7,8-tetrahydro[1,2,4]triazolo[4,3-a]pyridin-3(2H)-one]
18 | 0.3 | O=C(C1CCCc2nn(Cc3ccc(C(F)(F)F)c(F)c3)c(=O)n21)N1CCCC1 (racemic) [Example 14]
19 | 0.56 | Cc1ccc(Cn2nc3n(c2=O)C(C(=O)N2CCCC2)CC(C)C3)cc1 (racemic) [Example 224, (5RS,7RS)-7-Methyl-2-(4-methylbenzyl)-5-(pyrrolidin-1-ylcarbonyl)-5,6,7,8-tetrahydro[1,2,4]triazolo[4,3-a]pyridin-3(2H)-one]
20 | 1.2 | O=C(C1CCCc2nn(Cc3ccc(F)c(F)c3)c(=O)n21)N1CCCC1 (racemic) [Example 17, (5RS)-2-(3,4-Difluorobenzyl)-5-(pyrrolidin-1-ylcarbonyl)-5,6,7,8-tetrahydro[1,2,4]triazolo[4,3-a]pyridin-3(2H)-one]
21 | 0.27 | O=C([C@@H]1CCCc2nn(Cc3ccc(Br)cc3)c(=O)n21)N1C[C@@H](F)[C@@H](F)C1 [Example 210, (5S)-2-(4-Bromobenzyl)-5-{[(3R,4S)-3,4-difluoropyrrolidin-1-yl]carbonyl}-5,6,7,8-tetrahydro[1,2,4]triazolo[4,3-a]pyridin-3(2H)-one]
22 | 210 | CNC(=O)c1ccc(Cn2nc3n(c2=O)C(C(=O)N2CCCC2)CCC3)cc1 (racemic) [Example 155, N-Methyl-4-{[(5RS)-3-oxo-5-(pyrrolidin-1-ylcarbonyl)-5,6,7,8-tetrahydro[1,2,4]triazolo[4,3-a]pyridin-2(3H)-yl]methyl}benzamide]
23 | 0.4 | Cc1ccc(Cn2nc3n(c2=O)[C@H](C(=O)N2CCC[C@H]2C=O)CCC3)cc1 [Example 196, (2S)-1-{[(5S)-2-(4-Methylbenzyl)-3-oxo-2,3,5,6,7,8-hexahydro[1,2,4]triazolo[4,3-a]pyridin-5-yl]carbonyl}pyrrolidine-2-carbaldehyde]
